In series [1] the test system is TNFα. Kind of series: late phase (transcriptionally induced) TNFα secretion of macrophages, ELISA. It is filed as cell-based, mice. To be noted: preformed TNFα washed away after 4 hours, TNFα of next 4 hours; FIG. 3. The protocol:
For the detection of late phase TNFα secretion the preformed TNFα, released after LPS induction of the macrophages, was washed away after 4 hours, and the amount of TNFα produced during the next 4 hours was determined by ELISA test. […] Results are depicted in FIG. 3.
A general note: An ELISA detects its analyte on a solid surface through an enzyme-linked reagent.

Series [2] concerns HepG2 (human hepatocellular carcinoma). Kind of series: cytotoxic effect on hepatocellular carcinoma cell line, MTS test, 24 hours. It is filed as cell-based. To be noted: 24 hours incubation. The protocol: (§1) In these experiments HepG2 (human hepatocellular carcinoma) and MCF7 (Human breast adenocarcinoma) cells were used. They were cultured in the following media: For HepG2 Dulbecco's Modified Eagle Medium (D-MEM) (high glucose) (Gibco BRL, Carlsbad, Calif., USA), penicillin (50 IU/ml)-streptomycin ([…]), 10% fetal bovine serum; for MCF7 (Human breast adenocarcinoma) 1:1 mixture of Dulbecco's Modified Eagle Medium (D-MEM) (high glucose) (Gibco BRL, Carlsbad, Calif., USA) and Nutrient Mixture F-12 Ham (Sigma, St. Louis, Mo., USA), penicillin (50 IU/ml)-streptomycin ([…]), 10% fetal bovine serum. Experiments were performed as described in Example 9. with the difference that the incubation time was 24 hours in this case. After the incubation period MTS test (3-(4,5-dimethylthiazol-2-yl)-5-(3-carboxymethoxyphenyl)-2-(4-sulfophenyl)-2H-tetrazolium) (Promega, Madison, Wis., USA) was performed as described above.
For orientation: Tetrazolium assays rely on reduction of a dye to a coloured formazan, in cell work by metabolically active cells.

For series [3], the system named is MCF7 (Human breast adenocarcinoma). Put plainly: cytotoxic effect on breast carcinoma cell line, MTS test, 24 hours. Type of series: cell-based. To be noted: 24 hours incubation. On the procedure:
as §1

Series [4] relates to Mycobacterium avis. Kind of series: inhibition of Mycobacterium avis in THP-1 macrophage culture. To be noted: 36 mg/l, THP-1 human macrophage cells; FIG. 11. Type of series: cell-based. On the procedure: In this experiment the effects of compound 3a were analyzed: the inhibition of Mycobacterium avis in macrophage culture was investigated. Human macrophage cells (THP-1) were infected by Mycobacterium avis under in vitro conditions, subsequently treated (compound 3a: 36 mg/l) and untreated cells were harvested after different periods of time and the number of the living Mycobacterium avis bacteria were determined.

Series [5] deals with RVH human melanoma cell line. Put plainly: cytotoxic effect on melanoma cell line, MTS assay, 48 hours. It is filed as cell-based. To be noted: 48 hours treatment, FIG. 4; for effect on RVH melanoma cells: even at 100 μM concentration. The protocol:
RVH human melanoma cell line was cultured in Minimum Essential Medium Eagle (Sigma, St. Louis, Mo., USA), Na-piruvate, Glutamine, Non-essential amino acids, penicillin (50 IU/ml)-streptomycin ([…]), 10% fetal bovine serum at 37° C., in 5% CO2. Cells were trypsinized with trypsin/EDTA (Sigma-Aldrich, St. Louis, Mo.) on every second day and were passed into 60 or 100 mm plates. When the culture reached the required cell number (approx. 10^6) for the planned experiment 50.00 cell/well was plated into 24 well plates (Costar® 24 Well TC-Treated Microplates) and left overnight to adhere to the bottom of the well. Addition of the substance was performed the following way: next day the culture media was drawn from the adhered cells and media comprising compounds of the present invention in appropriate concentration and well mixed therein was pipetted (2 ml/well) onto the cells. The substance to be examined was diluted in 100% DMSO, this way an amount of DMSO corresponding to the highest concentration of the substance in a given assay were measured in the media of the control wells. After 48 hours of treatment live cells were detected by CellTiter® 96 Aqueous Non-radioactive Cell Proliferation Assay (Promega, Madison, Wis., USA) to determine the number of live cells in the treated and in the control samples.
MTS is converted to formazane in the living cells, which product is dissolved in the media, and its quantity/absorbance can be measured at 490 nm. […] Then, for the determination of the ratio of live cells 20 μl MTS and 1 μl PMS are added to 100 μl media. The enzyme reaction occurs at incubation at 37° C., 5% CO2 for 1 to 4 hours. Formazane produced by the cells is read on ELISA plate reader, from which the number of living cells can be obtained indirectly. Since the inventors performed the experiments in 24 well plates with 50.000 cell/well, the protocol had to be modified. After treatment of the cells for an appropriate time (type of compound, different concentrations), the incubation media (2 ml) containing the examined substance was removed, then 400 μl media containing reagents in the same concentration as given above (333.3 μl media, 66.6 μl MTS, and 3.3 μl PMS per well) was pipetted to the cells. To be able to use ELISA plate reader (Multiskan R C, Thermo Labsystems, Franklin, Mass., USA) 400 μl sample from each single well of the 24 well plate was pipetted into four wells of a 96 well plate (Micromethod plates 96 wells flat form) in 100 μl aliquots. That also helped to eliminate possible errors due to inconsistent pipetting. On each 24 well plate 4 wells were control samples. From these 3 times 100 μl was pipetted onto the 96 well plates, so, altogether 12 controls were provided on each 96 well plate. The remaining 4 wells were for background measurements with 100 μl media containing MTS and PMS as described above.

The test system of series [6] is RAW.264.7 matured mice macrophages. Kind of series: MTS test of vitality / metabolic activity of the macrophages. Type of series: cell-based. The protocol: In our experiments we investigated the early TNFα secretion of RAW.264.7 matured mice macrophages. This cell line stores large amount of preformed TNFα. […] Culture supernatant was collected and TNFα content was determined by R&D Duoset ELISA kit (detection limit<62.5 pg/ml). […] So the reduced TNFα level was due to inhibition of the release of preformed TNFα and not due to dying of the cells.
Effects of compound 3a and compound 3b on TNFα secretion and on NF-kappaB activation could have been based on cytotoxicity as well. To exclude that, we determined the metabolic activity of the cells, which is proportional to the cell number, by MTS test 8 hours after the treatment.

The subject of series [7] is Rab GTPase proteins. Put plainly: affinity chromatography of MCF-7 protein fraction with LC-MS/MS. To be noted: compound linked to Sepharose beads, 2 M NaCl eluate. Type of series: binding, human. The protocol: By using affinity chromatography we investigated which are the proteins that bind compound 5b of the invention. Compound 5b was linked to cyanobromide activated Sepharose (Amersham-Pharmacia, Sepharose 4B) beads in 6:4 DMF:water mixture for 16 hours at room temperature. 1 ml of the beads was washed with 50 ml 6:4 DMF:water mixture, and then with 50 ml 70% ethanol, then with PBS (0.01 M phosphate buffer, 0.0027 M KCl, 0.137 M NaCl, pH: 7.4). After washing the column 5 ml protein fraction of human MCF-7 breast carcinoma cells (10 million cells homogenized with Complete, Protease Inhibitor Cocktail Tablets, Roche Diagnostics GmbH) were applied onto the column. The column was washed with 20 ml 0.2 M NaCl—PBS solution, then with 15 ml 0.5 M NaCl—PBS solution and with 15 ml 0.8 M NaCl—PBS solution, then it was eluted by 2 ml 2 M NaCl—PBS. The eluate was analyzed by mass spectrometry (LC-MS/MS) to determine the proteins binding to compound 5b.
Mass spectrometry analysis was performed according to the protocol published at http://donatello.ucsf.edu/ingel.html at the time of drafting the patent application.
For the LC-MS/MS analysis 5 μl sample was injected. For the LC precolumn trap was applied: 5 min 20 μl 0.1% trifluoroacetic acid/water, then gradient elution for MS/MS analysis. Columns: Zorbax 300SB-C18, 5 μm, 5×0.3 mm; Zorbax 300SB-C18, 3.5 μm, 150×0.075 mm. […]

Series [8] concerns human leukemia cells (K562). Put plainly: leukemia survival model, K562 cells i.v. Type of series: in vivo, CB17/scid mice. The conditions noted are these: 100 mg/kg p.o., once a day five days per week for 3 weeks from day 4; FIG. 10. On the procedure: 2×10^6 human leukemia cells (K562) from in vitro cultures were injected intravenously (i.v.) into partially narcotized (diethylether narcosis) adult male CB17/scid mice, born with immunodeficiency. After tumor cell inoculation animals were randomly assigned into two groups and their ears were marked. From the 4th day after the tumor cell inoculation mice were treated once a day five days per week for 3 weeks with compound 9a (100 mg/kg), per os (p.o.) by gavage. Control animals were treated with appropriate dilution of the carrier (DMSO) similarly to the treated group with similar frequency. Body weight changes were monitored once a week for each animal according to the ear marks. Evaluation of the effect of the compound was based on the survival of the animals. Results are shown on FIG. 10.

[9] abbreviates: in the concentration range tested.
[10] abbreviates: already at 20 and 50 μM concentrations.

In the case of `CCNc1c(F)c(F)c(F)c2c1C(=O)N(c1c(C(C)C)cccc1C(C)C)C2=O` [Compound 3a, 2-(2,6-diisopropylphenyl)-4-(ethylamino)-5,6,7-trifluoroisoindole-1,3-dione], in series [1], the “late TNFα secretion of macrophages” value is on record as “inhibited late TNFα secretion of macrophages in a concentration dependent way”. The “effect on HepG2 cells” value in series [2] (setting [9]) is recorded as “weak effect”. In addition, the “effect on MCF7 cells” value in series [3] (setting [9]) was “weak effect”. In series [4], the “number of divided (living) bacteria versus untreated group” value is “significantly smaller”. Moreover, the “effect on RVH melanoma cells” value in series [5] is “weak effect”. In addition, the “vitality of the cells (MTS test)” value in series [6] (3 hours after the stimulation with LPS) is “no cell death was detected”. Further, in series [6] (8 hours after the treatment), the “metabolic activity of the cells (MTS test)” value is on record as “not found to be toxic”.
For the compound `CC(C)c1cccc(C(C)C)c1N1C(=O)c2c(F)c(F)c(F)c(NCc3cccnc3)c2C1=O` [Compound 4a], the “inhibition of HepG2 cells (cytotoxic effect)” value (“inhibition of HepG2 cells” below) in series [2] is listed as “strongest inhibition”. For the same compound, the “inhibition of MCF7 cells (cytotoxic effect)” value (shortened to “inhibition of MCF7 cells”) in series [3] is given as “strongest inhibition”. Besides, in series [5], the “inhibition of RVH melanoma cells (cytotoxic effect)” value (“inhibition of RVH melanoma cells” below) is reported as “strongest inhibition”.
With `CC(C)c1cccc(C(C)C)c1N1C(=O)c2c(F)c(F)c(NCc3cccnc3)c(F)c2C1=O` [Compound 4b], in series [2] (setting [10]), the “effect on HepG2 cells” value was “strong effect”. Besides, in series [3] (setting [10]), the “effect on MCF7 cells” value is “strong effect”. The “inhibition of RVH melanoma cells” value in series [5] was “strongest inhibition”.
Take `CC(C)c1cccc(C(C)C)c1N1C(=O)c2c(F)c(F)c(F)c(NCCN)c2C1=O` [Compound 5a, 2-(2,6-diisopropylphenyl)-4-(2-amino-ethylamino)-5,6,7-trifluoroisoindole-1,3-dione]: in series [2] (setting [9]), the “effect on HepG2 cells” value was “weak effect”. For the same compound, the “effect on MCF7 cells” value in series [3] (setting [10]) was “strong effect”. The “inhibition of RVH melanoma cells” value in series [5] is given as “strongest inhibition”.
Consider `CC(C)c1cccc(C(C)C)c1N1C(=O)c2c(F)c(F)c(NCCN)c(F)c2C1=O` [Compound 5b, 2-(2,6-diisopropylphenyl)-5-(2-amino-ethylamino)-4,6,7-trifluoroisoindole-1,3-dione], for which the “proteins binding to the compound” value in series [7] is reported as “interactions with Rab GTPase proteins were identified”. In series [5], the “effect on RVH melanoma cells” value is reported as “weak effect”.
For the compound `CC(C)c1cccc(C(C)C)c1N1C(=O)c2c(F)c(F)c(F)c(NCC(F)(F)F)c2C1=O` [Compound 6a, 2-(2,6-diisopropylphenyl)-4,5,6-trifluoro-7-(2,2,2-trifluoroethylamino)isoindole-1,3-dione], the “inhibition of HepG2 cells” value in series [2] is “strongest inhibition”. Also, in series [3], the “inhibition of MCF7 cells” value is given as “strongest inhibition”. Also, the “inhibition of RVH melanoma cells” value in series [5] is “strongest inhibition”.
Consider `CC(C)c1cccc(C(C)C)c1N1C(=O)c2c(F)c(F)c(F)c(NCCCN3CCOCC3)c2C1=O` [Compound 7a, 2-(2,6-diisopropylphenyl)-4-(3-morpholino-4-yl-propylamino)-5,6,7-trifluoroisoindole-1,3-dione], for which the “inhibition of HepG2 cells” value in series [2] is reported as “strongest inhibition”. In series [3], the “inhibition of MCF7 cells” value is reported as “strongest inhibition”.
For `CC(C)c1cccc(C(C)C)c1N1C(=O)c2c(F)c(F)c(NCCCN3CCOCC3)c(F)c2C1=O` [Compound 7b, 2-(2,6-diisopropylphenyl)-5-(3-morpholino-4-yl-propylamino)-4,6,7-trifluoroisoindole-1,3-dione], in series [2], the “inhibition of HepG2 cells” value is “strongest inhibition”. Further, in series [2] (setting [10]), the “effect on HepG2 cells” value is listed as “strong effect”. In addition, the “effect on MCF7 cells” value in series [3] (setting [10]) is on record as “strong effect”. For the same compound, the “inhibition of RVH melanoma cells” value in series [5] was “strongest inhibition”.
In the case of `CC(C)c1cccc(C(C)C)c1N1C(=O)c2c(F)c(F)c(F)c(NC3CCCC3)c2C1=O` [Compound 9a, 2-(2,6-diisopropylphenyl)-4-(cyclopentylamino)-5,6,7-trifluoroisoindoline-1,3-dione], the “survival of the animals” value in series [8] is given as “significant increase of the survival”.
